Assay results: US20180327396A1, “NOVEL PYRIDINE DERIVATIVES” (Hoffmann-La Roche Inc., priority 2014, published 2018)
Like-named read-outs stand apart in the source and are kept apart here.

Molecular target: T1, human CB2 receptors (Homo sapiens, UniProt P34972)
T1 construct: expressed in transfected cells; host or cells: CHO cells
Experiment: cAMP assay
Type: cell-based
Description: CHO cells expressing human CB1 or CB2 receptors are seeded 17-24 hours prior to the experiment 50.000 cells per well in a black 96 well plate with flat clear bottom (Corning Costar #3904) in DMEM (Invitrogen No. 31331), 1× HT supplement, with 10% fetal calf serum and incubated at 5% CO2 and 37° C. in a humidified incubator. The growth medium was exchanged with Krebs Ringer Bicarbonate buffer with 1 mM IBMX and incubated at 30° C. for 30 min. Compounds were added to a final assay volume of 100 μl and incubated for 30 min at 30° C. Using the cAMP-Nano-TRF detection kit the assay (Roche Diagnostics) was stopped by the addition of 50 μl lysis reagent (Tris, NaCl, 1.5% Triton X100, 2.5% NP40, 10% NaN3) and 50 μl detection solutions (20 μM mAb Alexa700-cAMP 1:1, and 48 μM Ruthenium-2-AHA-cAMP) and shaken for 2 h at room temperature. The time-resolved energy transfer is measured by a TRF reader (Evotec Technologies GmbH), equipped with a ND:YAG laser as excitation source. The plate is measured twice with the excitation at 355 nm and at the emission with a delay of 100 ns and a gate of 100 ns, total exposure time 10 s at 730 (bandwidth 30 nm) or 645 nm (bandwidth 75 nm), respectively. The FRET signal is calculated as follows: FRET=T730−Alexa730−P(T645−B645) with P=Ru730−B730/Ru645−B645, where T730 is the test well measured at […], T645 is the test well measured at 645 nm, B730 and B645 are the buffer controls at 730 nm and 645 nm, respectively. cAMP content is determined from the function of a standard curve spanning from 10 μM to 0.13 nM cAMP.
EC50 values were determined using Activity Base analysis (ID Business Solution, Limited). The EC50 values for a wide range of cannabinoid agonists generated from this assay for reference compounds were in agreement with the values published in the scientific literature.

[1] = CHO cells expressing human CB2 receptors, read-out: cAMP assay human CB2 EC50

T1 sequence (P34972 whole entry): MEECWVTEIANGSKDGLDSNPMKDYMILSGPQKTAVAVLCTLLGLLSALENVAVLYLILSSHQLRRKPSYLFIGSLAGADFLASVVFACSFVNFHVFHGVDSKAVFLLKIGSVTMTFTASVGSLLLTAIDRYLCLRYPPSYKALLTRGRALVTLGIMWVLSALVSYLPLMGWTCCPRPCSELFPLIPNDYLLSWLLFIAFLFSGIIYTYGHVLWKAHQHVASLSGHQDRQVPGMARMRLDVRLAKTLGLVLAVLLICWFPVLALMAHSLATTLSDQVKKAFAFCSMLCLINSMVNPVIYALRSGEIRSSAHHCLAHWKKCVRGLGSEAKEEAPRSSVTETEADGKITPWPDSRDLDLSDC

Row | SMILES | EC50 [1] [nM] | EC50 [nM]
1 | CC(C)(Cc1nnc(-c2ccc(F)cc2)o1)NC(=O)c1ccc(N2CC(F)(F)C2)c(OCC2CC2)n1 [Example 27, 6-(Cyclopropylmethoxy)-5-(3,3-difluoroazetidin-1-yl)-N-[1-[5-(4-fluorophenyl)-1,3,4-oxadiazol-2-yl]-2-methylpropan-2-yl]pyridine-2-carboxamide] | 2890 | –
2 | COCCOCC(C)(C)c1cc(NC(=O)c2ccc(N3CC(F)(F)C3)c(OCC3CC3)n2)on1 [Example 16, 6-(Cyclopropylmethoxy)-5-(3,3-difluoroazetidin-1-yl)-N-[3-[1-(2-methoxyethoxy)-2-methylpropan-2-yl]-1,2-oxazol-5-yl]pyridine-2-carboxamide] | – | 218
3 | CC(C)(NC(=O)c1cccc(-c2ccc(Cl)cc2Cl)n1)c1nnc(-c2ccccc2)o1 [Example 14, 6-(2,4-Dichlorophenyl)-N-[2-(5-phenyl-1,3,4-oxadiazol-2-yl)propan-2-yl]pyridine-2-carboxamide] | – | 227
4 | CC(C)(COC1CCCCO1)c1cc(NC(=O)c2cnc(C3CC3)c(OCC3CC3)n2)on1 (stereo not drawn) [Example 24, 5-Cyclopropyl-6-(cyclopropylmethoxy)-N-[3-[2-methyl-1-(oxan-2-yloxy)propan-2-yl]-1,2-oxazol-5-yl]pyrazine-2-carboxamide] | – | 75.2
5 | CC(C)(Cc1nnc(-c2ccccc2)o1)NC(=O)c1cccc(OCC(F)(F)F)n1 [Example 3, N-[2-Methyl-1-(5-phenyl-1,3,4-oxadiazol-2-yl)propan-2-yl]-6-(2,2,2-trifluoroethoxy)pyridine-2-carboxamide] | – | 132
6 | O=C(NC12CC3CC(CC(O)(C3)C1)C2)c1ccc(N2CC(F)(F)C2)c(OCC2CC2)n1 [Example 21, 6-(Cyclopropylmethoxy)-5-(3,3-difluoroazetidin-1-yl)-N-(3-hydroxy-1-adamantyl)pyridine-2-carboxamide] | – | 81.6
7 | CC(C)(Cc1nnc(-c2ccc(F)cc2)o1)NC(=O)c1ccc(C2CCCC2)c(OCC2CC2)n1 [Example 28, 5-Cyclopentyl-6-(cyclopropylmethoxy)-N-[1-[5-(4-fluorophenyl)-1,3,4-oxadiazol-2-yl]-2-methylpropan-2-yl]pyridine-2-carboxamide] | 2760 | –
8 | CC(C)(CO)c1cc(NC(=O)c2ccc(C3CC3)c(OCC3CC3)n2)on1 [Example 19, 5-Cyclopropyl-6-(cyclopropylmethoxy)-N-[3-(1-hydroxy-2-methylpropan-2-yl)-1,2-oxazol-5-yl]pyridine-2-carboxamide] | – | 139
9 | CC(C)(Cc1nnc(-c2ccccc2)o1)NC(=O)c1cccc(-c2cccc(Cl)c2)n1 [Example 6, 6-(3-Chlorophenyl)-N-[2-methyl-1-(5-phenyl-1,3,4-oxadiazol-2-yl)propan-2-yl]pyridine-2-carboxamide] | – | 182
10 | CC(C)(CO)n1cc(NC(=O)c2ccc(C3CC3)c(OCC3CC3)n2)cn1 [Example 17, 5-Cyclopropyl-6-(cyclopropylmethoxy)-N-[1-(1-hydroxy-2-methylpropan-2-yl)pyrazol-4-yl]pyridine-2-carboxamide] | – | 224
11 | CC(C)(C)OC(=O)N1CCOC(CNC(=O)c2ccc(C3CC3)c(Cc3ccc(F)cc3)n2)C1 (stereo not drawn) [Example 22, tert-Butyl 2-[[[5-cyclopropyl-6-[(4-fluorophenyl)methyl]pyridine-2-carbonyl]amino]methyl]morpholine-4-carboxylate] | – | 101
12 | CC(C)(Cc1nnc(-c2ccccc2)o1)NC(=O)c1ccc(C2CC2)c(-c2ccc(Cl)cc2)n1 [Example 10, 6-(4-Chlorophenyl)-5-cyclopropyl-N-[2-methyl-1-(5-phenyl-1,3,4-oxadiazol-2-yl)propan-2-yl]pyridine-2-carboxamide] | – | 265
13 | CC(C)(Cc1nc(-c2ccccc2)no1)NC(=O)c1cccc(-c2ccc(Cl)cc2)n1 [Example 4, 6-(4-Chlorophenyl)-N-[2-methyl-1-(3-phenyl-1,2,4-oxadiazol-5-yl)propan-2-yl]pyridine-2-carboxamide] | – | 339
14 | CCOCCOCC(C)(C)c1cc(NC(=O)c2ccc(C3CC3)c(OCC3CC3)n2)on1 [Example 20, 5-Cyclopropyl-6-(cyclopropylmethoxy)-N-[3-[1-(2-ethoxyethoxy)-2-methylpropan-2-yl]-1,2-oxazol-5-yl]pyridine-2-carboxamide] | – | 22.5
15 | COCCOCC(C)(C)c1cc(NC(=O)c2ccc(C3CCCC3)c(OCC3CC3)n2)on1 [Example 29, 5-Cyclopentyl-6-(cyclopropylmethoxy)-N-[3-[1-(2-methoxyethoxy)-2-methylpropan-2-yl]-1,2-oxazol-5-yl]pyridine-2-carboxamide] | 175 | –
16 | CC(C)(CN=[N+]=[N-])c1cc(NC(=O)c2cnc(C3CC3)c(OCC3CC3)n2)on1 [Example 26, N-[3-(1-Azido-2-methylpropan-2-yl)-1,2-oxazol-5-yl]-5-cyclopropyl-6-(cyclopropylmethoxy)pyrazine-2-carboxamide] | – | 12.4
17 | CC(C)(Cc1nnc(-c2ccccc2)o1)NC(=O)c1ccc(Nc2ccc(Cl)cc2Cl)c(Cl)n1 [Example 9, 6-Chloro-5-(2,4-dichloroanilino)-N-[2-methyl-1-(5-phenyl-1,3,4-oxadiazol-2-yl)propan-2-yl]pyridine-2-carboxamide] | – | 36.7
18 | Cc1nnc(C(C)(C)NC(=O)c2cccc(-c3ccc(Cl)cc3Cl)n2)o1 [Example 15, 6-(2,4-Dichlorophenyl)-N-[2-(5-methyl-1,3,4-oxadiazol-2-yl)propan-2-yl]pyridine-2-carboxamide] | – | 107
19 | CC(C)(CO)c1cc(NC(=O)c2cnc(C3CC3)c(OCC3CC3)n2)on1 [Example 25, 5-Cyclopropyl-6-(cyclopropylmethoxy)-N-[3-(1-hydroxy-2-methylpropan-2-yl)-1,2-oxazol-5-yl]pyrazine-2-carboxamide] | – | 51.6
20 | NC(=O)[C@H]1CSCCN1C(=O)c1cnc(C2CC2)c(OCC2CC2)n1 [Example 23, (+)-4-[5-Cyclopropyl-6-(cyclopropylmethoxy)pyrazine-2-carbonyl]thiomorpholine-3-carboxamide] | – | 589
21 | CC(C)(Cc1nnc(C2CC2)o1)NC(=O)c1cccc(-c2ccc(Cl)cc2)n1 [Example 1, 6-(4-Chlorophenyl)-N-[1-(5-cyclopropyl-1,3,4-oxadiazol-2-yl)-2-methylpropan-2-yl]pyridine-2-carboxamide] | – | 497
22 | CC(C)(Cc1nc(-c2ccccc2)no1)NC(=O)c1cccc(OCC(F)(F)F)n1 [Example 5, N-[2-Methyl-1-(3-phenyl-1,2,4-oxadiazol-5-yl)propan-2-yl]-6-(2,2,2-trifluoroethoxy)pyridine-2-carboxamide] | 554 | –
23 | CC(C)(Cc1nc(-c2ccccc2)no1)NC(=O)c1cccc(-c2cccc(Cl)c2)n1 [Example 8, 6-(3-Chlorophenyl)-N-[2-methyl-1-(3-phenyl-1,2,4-oxadiazol-5-yl)propan-2-yl]pyridine-2-carboxamide] | 194 | –
24 | COCCOCC(C)(C)c1cc(NC(=O)c2ccc(C3CC3)c(OCC3CC3)n2)on1 [Example 18, 5-Cyclopropyl-6-(cyclopropylmethoxy)-N-[3-[1-(2-methoxyethoxy)-2-methylpropan-2-yl]-1,2-oxazol-5-yl]pyridine-2-carboxamide] | – | 35.2
25 | CC(C)(Cc1nnc(C2CCC2)o1)NC(=O)c1cccc(-c2cccc(Cl)c2)n1 [Example 13, 6-(3-Chlorophenyl)-N-[1-(5-cyclobutyl-1,3,4-oxadiazol-2-yl)-2-methylpropan-2-yl]pyridine-2-carboxamide] | – | 294
26 | CC(C)(Cc1nnc(-c2ccccc2)o1)NC(=O)c1cccc(-c2ccc(Cl)cc2)n1 [Example 2, 6-(4-Chlorophenyl)-N-[2-methyl-1-(5-phenyl-1,3,4-oxadiazol-2-yl)propan-2-yl]pyridine-2-carboxamide] | 165 | –
27 | CC(C)(Cc1nc(C2CC2)no1)NC(=O)c1cccc(-c2cccc(Cl)c2)n1 [Example 7, 6-(3-Chlorophenyl)-N-[1-(3-cyclopropyl-1,2,4-oxadiazol-5-yl)-2-methylpropan-2-yl]pyridine-2-carboxamide] | – | 244
28 | COCCOc1cccc(C(=O)NC(C)(C)Cc2nc(-c3ccccc3)no2)n1 [Example 11, 6-(2-Methoxyethoxy)-N-[2-methyl-1-(3-phenyl-1,2,4-oxadiazol-5-yl)propan-2-yl]pyridine-2-carboxamide] | – | 573
29 | CCOCCOCC(C)(C)c1cc(NC(=O)c2ccc(C3CCCC3)c(OCC3CC3)n2)on1 [Example 30, 5-Cyclopentyl-6-(cyclopropylmethoxy)-N-[3-[1-(2-ethoxyethoxy)-2-methylpropan-2-yl]-1,2-oxazol-5-yl]pyridine-2-carboxamide] | 176 | –
30 | CC(C)(Cc1nc(-c2ccccc2)no1)NC(=O)c1cccc(N2CCCC2=O)n1 [Example 12, N-[2-Methyl-1-(3-phenyl-1,2,4-oxadiazol-5-yl)propan-2-yl]-6-(2-oxopyrrolidin-1-yl)pyridine-2-carboxamide] | 662 | –
